Here are results for 14 molecules from patent US11180503B2, “[1,2,4]Triazolo[4,3-A]pyrazin-6(5H)-one derivatives” (Eli Lilly and Company, priority 2017, dated 2021).

Usually IC50 stands for the point on the concentration scale where inhibition reaches its midpoint.

Each structure is given as a SMILES string. Bounds are passed on as bounds.

Assay type in all cases: biochemical
The target in one assay is human PDE4D (Homo sapiens (Human), UniProt Q08499). Briefly: PDE enzyme assay using [3H]cAMP as substrate (radiometric SPA). The note with it: human PDE4D 0.021 nM, [3H]cAMP 47 nM; read-out: PDE 4D IC50. The text has this:
(§1) The nucleotide sequences encoding full-length human PDE1A (NP_001003683.1) and PDE1C (NP_005011.1) are inserted into pFastBac1 (Invitrogen) vector with an N-terminal HIS tag. The nucleotide sequences encoding full-length human PDE4D (NP_006194.2) and catalytic domain (residue 641-1141) of PDE3A (NP_000912.3) are inserted into pFastBac1 (Invitrogen) vector with a C-terminal HIS tag. The nucleotide sequences encoding full-length human PDE6A (NP_000431.2) and PDE6B (AAH00249.1) are inserted into pFastBacDual (Invitrogen) vector with an N-terminal HIS tag and N-terminal Flag tag, respectively, for production of PDE6A/6B dimer. Baculovirus generation and protein expression in Sf9 cells are carried out according to the protocol of Bac-to-Bac Baculovirus Expression system (Invitrogen). The nucleotide sequence encoding full-length human PDE1B (NP_000915.1) is inserted into pIEX4 (Novagen) with a C-terminal HIS tag, and both protein productions in Sf9 cells are carried out according to the vendor's protocol (Novagen). The His tagged PDE proteins are purified using Ni-NTA agarose (Qiagen) followed by size exclusion chromatography on a SUPERDEX® 200 column (GE Healthcare) in storage buffer (20 mM Tris-HCl, pH7.5, 150 mM NaCl, 10% Glycerol). The Flag tagged PDE proteins including PDE6A/6B are purified using anti-Flag M2-agarose (Sigma), after purification through NiNTA column chromatography and eluted in storage buffer (50 mM Tris-HCl, pH7.5, 150 mM NaCl, 10% Glycerol, 0.1 mg/ml Flag peptide). All purified proteins are stored at −80° C. in small aliquots.
(§2) All 3′,5′ cyclic nucleotide phosphodiesterase (PDE) enzyme activities are measured with a radiometric enzyme assay based on SPA detection system (scintillation proximity assay). Compounds to be tested are diluted in pure dimethyl sulfoxide (DMSO) using ten point concentration response curves. Maximal compound concentration in the reaction mixture is either 10 or 100 μM. Compounds at the appropriate concentration are pre-incubated with either of the PDE enzymes for 30 minutes before the reaction is started by the addition of substrate. Reactions are allowed to proceed for 60 minutes at room temperature. Next, reactions are stopped by addition of SPA beads. Samples are read 12 hours later in a MICROBETA™ TRILUX® Counter. “IC50” refers to the concentration of the compound that produces 50% of the maximal inhibitory response possible for that compound. IC50 values are calculated by plotting the normalized data vs. log [compound] and fitting the data using a four parameter logistic equation.
(§3) The following phosphodiesterase activities are measured using [^3H]cAMP as reaction substrate: human PDE3A (catalytic domain) and human PDE4D. Both enzymes are cloned and purified following standard procedures. The assay buffer is prepared to give a final concentration in the assay of 50 mM Tris-HCl, 8.3 mM MgCl2, 1.7 mM ethylenediaminetetraacetic acid (EDTA) and 0.1% Bovine serum albumin at pH 7.5. Final enzyme concentrations are 0.008 and 0.021 nM for PDE3A and PDE4D, respectively. Reactions are started by addition of the substrate, [^3H]cAMP, to give a final concentration of 47 nM.

Assay [1] deals with human PDE3A (catalytic domain) (Homo sapiens (Human), UniProt Q14432). The assay is described as above. The following applies: human PDE3A catalytic domain 0.008 nM, [3H]cAMP 47 nM.
Text: as §1, §2, §3

Another assay addresses human PDE1C (Homo sapiens (Human), UniProt Q14123). Briefly: Ca2+-calmodulin dependent PDE enzyme assay (radiometric SPA, [3H]cAMP). The following applies: human PDE1C 0.0012 nM, [3H]cAMP 47 nM; read-out: PDE 1C IC50.
Text: as §1, §2
(§4) PDE1B, PDE1A, and PDE1C are cloned and purified following standard protein generation procedures. The assay buffer is prepared to give a final concentration in the assay of 50 mM Tris-HCl, 50 mM MgCl2, 4 mM CaCl2, 0.1% Bovine serum albumin and 6 U/ml Calmodulin in water, at pH 7.5. The final enzyme concentration is 0.25, 0.074 and 0.0012 nM, for PDE1A, PDE1B and PDE1C respectively. The reactions are started by addition of the substrate, [^3H]cAMP, to give a final concentration of 47 nM.

A further assay has as its target human PDE1A (Homo sapiens (Human), UniProt P54750). The assay is described as above. The following applies: human PDE1A 0.25 nM, [3H]cAMP 47 nM; read-out: PDE 1A IC50.
Text: as §1, §2, §4

A further assay concerns the target human PDE1B (Homo sapiens (Human), UniProt Q01064). The assay is described as above. The following applies: human PDE1B 0.074 nM, [3H]cAMP 47 nM; read-out: PDE 1B IC50.
Text: as §1, §2, §4

The target in another assay is human PDE6A/6B (Homo sapiens (Human), UniProt P16499+P35913). As to the kind of experiment: PDE enzyme assay using [3H]cGMP as substrate (radiometric SPA). The following applies: human PDE6A/6B dimer 5 nM, [3H]cGMP 80 nM; read-out: PDE 6AB IC50.
Text: as §1, §2
The following phosphodiesterase activities are measured using [^3H]cGMP as reaction substrate: human PDE6A/6B. The catalytic active form of human PDE6 is a dimer composed of a α (human PDE6A) and β subunits (human PDE6B). The dimer of human PDE6A/6B is produced by the coexpression and purification strategy, using two purification steps, i.e., NiNTA and anti-FLAG Sepharose chromatography. The assay buffer is prepared to give a final concentration in the assay of 50 mM Tris-HCl, 8.3 mM MgCl2, 1.7 mM EDTA and 0.1% Bovine serum albumin at pH 7.5. The final enzyme concentration is 5 nM. The reactions are started by addition of the substrate, [^3H]cGMP, to give a final concentration of 80 nM.

Chain of human PDE6A/6B (P16499 whole entry, change not shown): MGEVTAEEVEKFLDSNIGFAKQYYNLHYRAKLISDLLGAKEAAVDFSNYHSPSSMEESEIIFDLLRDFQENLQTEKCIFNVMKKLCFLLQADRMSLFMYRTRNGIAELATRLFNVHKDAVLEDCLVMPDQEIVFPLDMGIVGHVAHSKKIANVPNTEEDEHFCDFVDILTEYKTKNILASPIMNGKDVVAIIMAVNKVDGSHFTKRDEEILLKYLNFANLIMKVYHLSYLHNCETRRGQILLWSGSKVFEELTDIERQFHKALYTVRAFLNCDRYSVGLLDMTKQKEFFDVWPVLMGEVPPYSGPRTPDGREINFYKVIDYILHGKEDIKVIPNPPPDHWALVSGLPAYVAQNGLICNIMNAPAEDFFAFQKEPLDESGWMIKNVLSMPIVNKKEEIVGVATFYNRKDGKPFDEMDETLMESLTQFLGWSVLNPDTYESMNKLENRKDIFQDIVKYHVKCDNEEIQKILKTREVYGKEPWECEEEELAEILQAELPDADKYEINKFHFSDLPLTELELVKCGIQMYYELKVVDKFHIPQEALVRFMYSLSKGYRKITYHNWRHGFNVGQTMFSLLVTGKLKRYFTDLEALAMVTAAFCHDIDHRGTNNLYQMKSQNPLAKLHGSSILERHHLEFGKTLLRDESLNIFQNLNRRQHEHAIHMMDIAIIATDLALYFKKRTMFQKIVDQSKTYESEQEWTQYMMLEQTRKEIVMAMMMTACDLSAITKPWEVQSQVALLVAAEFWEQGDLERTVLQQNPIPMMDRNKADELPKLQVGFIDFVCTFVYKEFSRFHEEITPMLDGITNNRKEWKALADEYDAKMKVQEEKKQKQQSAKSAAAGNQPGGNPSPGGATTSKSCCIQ
Chain of human PDE6A/6B (P35913 other isoform, or with tags, fused parts or gaps isoform P35913-2): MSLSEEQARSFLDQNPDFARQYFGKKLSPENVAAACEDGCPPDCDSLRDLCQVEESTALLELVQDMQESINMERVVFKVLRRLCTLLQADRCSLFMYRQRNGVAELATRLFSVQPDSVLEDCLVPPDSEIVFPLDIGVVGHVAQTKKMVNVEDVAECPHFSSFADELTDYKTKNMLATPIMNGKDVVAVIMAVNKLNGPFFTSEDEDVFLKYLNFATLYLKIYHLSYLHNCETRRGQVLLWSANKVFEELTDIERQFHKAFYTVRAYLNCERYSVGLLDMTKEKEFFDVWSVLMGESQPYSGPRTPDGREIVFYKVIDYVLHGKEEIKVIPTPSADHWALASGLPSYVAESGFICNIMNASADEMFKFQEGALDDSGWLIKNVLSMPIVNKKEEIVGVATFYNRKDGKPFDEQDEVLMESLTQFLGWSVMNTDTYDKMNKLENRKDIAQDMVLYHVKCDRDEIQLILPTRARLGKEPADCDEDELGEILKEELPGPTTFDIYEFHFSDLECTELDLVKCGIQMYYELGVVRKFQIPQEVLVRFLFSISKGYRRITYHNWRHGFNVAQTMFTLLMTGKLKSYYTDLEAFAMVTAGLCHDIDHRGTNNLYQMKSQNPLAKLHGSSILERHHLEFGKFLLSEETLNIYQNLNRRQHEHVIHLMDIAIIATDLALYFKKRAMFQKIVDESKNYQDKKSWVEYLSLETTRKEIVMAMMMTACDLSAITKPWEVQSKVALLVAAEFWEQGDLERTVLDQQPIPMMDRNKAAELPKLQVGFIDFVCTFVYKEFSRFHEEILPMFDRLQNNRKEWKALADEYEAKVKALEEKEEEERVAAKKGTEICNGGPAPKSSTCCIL
Chain of human PDE4D (Q08499 other isoform, or with tags, fused parts or gaps): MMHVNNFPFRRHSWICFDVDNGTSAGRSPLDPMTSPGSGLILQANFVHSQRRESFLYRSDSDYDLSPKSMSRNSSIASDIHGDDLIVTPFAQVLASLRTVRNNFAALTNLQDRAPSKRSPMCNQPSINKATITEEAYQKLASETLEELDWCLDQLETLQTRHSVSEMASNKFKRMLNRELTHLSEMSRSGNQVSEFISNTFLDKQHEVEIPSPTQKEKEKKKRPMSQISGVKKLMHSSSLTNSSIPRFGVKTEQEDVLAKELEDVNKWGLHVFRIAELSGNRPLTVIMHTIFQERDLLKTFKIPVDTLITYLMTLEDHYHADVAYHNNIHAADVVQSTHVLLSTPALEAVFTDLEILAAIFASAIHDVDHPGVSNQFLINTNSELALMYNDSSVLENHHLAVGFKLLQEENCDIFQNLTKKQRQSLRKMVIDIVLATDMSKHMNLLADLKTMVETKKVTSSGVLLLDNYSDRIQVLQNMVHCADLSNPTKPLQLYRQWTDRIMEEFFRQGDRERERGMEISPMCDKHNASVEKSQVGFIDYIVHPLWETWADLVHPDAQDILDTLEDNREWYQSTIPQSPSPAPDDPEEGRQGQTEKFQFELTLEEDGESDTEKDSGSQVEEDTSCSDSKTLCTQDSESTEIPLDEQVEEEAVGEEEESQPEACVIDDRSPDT
Chain of human PDE3A (catalytic domain) (Q14432 641-1141): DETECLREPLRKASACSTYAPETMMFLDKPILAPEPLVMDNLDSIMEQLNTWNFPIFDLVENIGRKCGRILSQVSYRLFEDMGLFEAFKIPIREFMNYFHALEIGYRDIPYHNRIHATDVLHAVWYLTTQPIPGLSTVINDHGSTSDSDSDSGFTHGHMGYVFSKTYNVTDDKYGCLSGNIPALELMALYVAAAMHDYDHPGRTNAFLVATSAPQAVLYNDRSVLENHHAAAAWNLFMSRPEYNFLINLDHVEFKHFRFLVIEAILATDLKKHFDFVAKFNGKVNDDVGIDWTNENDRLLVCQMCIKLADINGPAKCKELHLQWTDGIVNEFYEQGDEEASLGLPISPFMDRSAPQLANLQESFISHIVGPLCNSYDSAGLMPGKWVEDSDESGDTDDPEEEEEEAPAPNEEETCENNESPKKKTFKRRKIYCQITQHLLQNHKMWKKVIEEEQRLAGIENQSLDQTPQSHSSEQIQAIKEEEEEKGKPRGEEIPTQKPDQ

Consider `CCCCn1c(=O)c2nnc(C3(C4CC4)CC3)n2c2nc(C)ccc21` [Example 13, 9-([1,1′-bi(cyclopropan)]-1-yl)-5-butyl-2-methylpyrido[3,2-e][1,2,4]triazolo[4,3-a]pyrazin-6(5H)-one], for which the IC50 is 2090 nM on human PDE4D; 19200 nM in assay [1]; below 0.5 nM on human PDE1C; 0.816 ± 0.198 nM on human PDE1A; 1.13 ± 0.254 nM on human PDE1B; 2990 nM at human PDE6A/6B.

With `CCCCn1c(=O)c2nnc(C3(C)CC3)n2c2ncc(CO)cc21` [Example 12, 5-Butyl-3-(hydroxymethyl)-9-(1-methylcyclopropyl)pyrido[3,2-e][1,2,4]triazolo[4,3-a]pyrazin-6(5H)-one], the IC50 on human PDE4D is 5130 ± 2140 nM; in assay [1], at least 93400 nM; on human PDE1C, 4.02 ± 0.167 nM; on human PDE1A, 23 ± 3.62 nM; on human PDE1B it was 17.4 ± 10 nM; on human PDE6A/6B, 3060 ± 1450 nM.

With `CCCCn1c(=O)c2nnc(C3(C4CC4)CC3)n2c2ncc(C)cc21` [Example 1, 9-([1,1′-bi(cyclopropan)]-1-yl)-5-butyl-3-methylpyrido[3,2-e][1,2,4]triazolo[4,3-a]pyrazin-6(5H)-one], the IC50 at human PDE4D is 1590 ± 217 nM; in assay [1], above 50000 nM; at human PDE1C it was below 0.508 nM; at human PDE1A, 0.366 ± 0.765 nM; on human PDE1B it was 0.406 ± 1.08 nM; at human PDE6A/6B, at least 3450 nM.

Take `CCC(Cn1c(=O)c2nnc(C3(C4CC4)CC3)n2c2ncccc21)OC` (single isomer, unassigned) [Example 4b, 9-([1,1′-bi(cyclopropan)]-1-yl)-5-(2-methoxybutyl)pyrido[3,2-e][1,2,4]triazolo[4,3-a]pyrazin-6(5H)-one]: the IC50 on human PDE4D was above 100000 nM; at human PDE1C it was 1.46 ± 0.642 nM; at human PDE1A, 15.1 ± 2.84 nM; on human PDE1B it was 25.8 ± 0.614 nM.

Turning to `CCCCn1c(=O)c2nnc(C3(C4CC4)CC3)n2c2nc(C)c(C)cc21` [Example 7, 9-([1,1′-Bi(cyclopropan)]-1-yl)-5-butyl-2,3-dimethylpyrido[3,2-e][1,2,4]triazolo[4,3-a]pyrazin-6(5H)-one], the concentration for half-maximal inhibition (IC50) is 3020 nM on human PDE4D; 71200 nM in assay [1]; below 0.5 nM at human PDE1C; 0.343 ± 0.765 nM at human PDE1A; 0.4 ± 0.867 nM on human PDE1B; 1200 nM at human PDE6A/6B.

For the molecule `O=c1c2nnc(C3(C4CC4)CC3)n2c2nc(O)ccc2n1CC1CC1` [Example 5, 9-([1,1′-bi(cylopropan)]-1-yl)-5-(cyclopropylmethyl)-2-hydroxypyrido[3,2-e][1,2,4]triazolo[4,3-a]pyrazin-6(5H)-one], the IC50 on human PDE4D is 14700 ± 8240 nM; in assay [1], 22900 ± 1140 nM; at human PDE1C, 0.931 ± 0.132 nM; on human PDE1A it was 2.75 ± 2.11 nM; at human PDE1B it was 2.41 ± 0.846 nM; on human PDE6A/6B, above 10000 nM.

In the case of `CCCCn1c(=O)c2nnc(C3(C4CC4)CC3)n2c2ncc(C(C)C)cc21` [Example 10, 9-([1,1′-bi(cyclopropan)]-1-yl)-5-butyl-3-isopropylpyrido[3,2-e][1,2,4]triazolo[4,3-a]pyrazin-6(5H)-one], the IC50 is 972 nM at human PDE4D; above 100000 nM in assay [1]; below 0.5 nM at human PDE1C; 0.26 ± 0.589 nM at human PDE1A; 0.396 ± 0.749 nM on human PDE1B; 611 nM on human PDE6A/6B.

Turning to `CCCCn1c(=O)c2nnc(C3(C4CC4)CC3)n2c2ncc(CC)cc21` [Example 9, 9-([1,1′-Bi(cyclopropan)]-1-yl)-5-butyl-3-ethylpyrido[3,2-e][1,2,4]triazolo[4,3-a]pyrazin-6(5H)-one], the IC50 is 675 nM at human PDE4D and below 0.5 nM at human PDE1C.

`CCCCn1c(=O)c2nnc(C3(C(F)(F)F)CC3)n2c2ncc(C)cc21` [Example 2, 5-Butyl-3-methyl-9-(1-(trifluoromethyl)cyclopropyl)pyrido[3,2-e][1,2,4]triazolo[4,3-a]pyrazin-6(5H)-one]: the IC50 at human PDE4D was 26000 nM; in assay [1], above 100000 nM; on human PDE1C, 1.62 ± 0.231 nM; at human PDE1A, 8.62 ± 2.53 nM; at human PDE1B it was 12.1 ± 1.06 nM; on human PDE6A/6B it was above 10000 nM.

In the case of `CCC(Cn1c(=O)c2nnc(C3(C4CC4)CC3)n2c2ncccc21)OC` (racemic) [Example 4, rac-9-([1,1′-Bi(cyclopropan)]-1-yl)-5-(2-methoxybutyl)-pyrido[3,2-e][1,2,4]triazolo[4,3-a]pyrazin-6(5H)-one], the IC50 was 33600 nM at human PDE4D; above 100000 nM in assay [1]; 0.609 ± 0.128 nM on human PDE1C; 13.9 ± 2.06 nM on human PDE1A; 33.5 ± 6.26 nM at human PDE1B; above 10000 nM on human PDE6A/6B.

Regarding `CCCCn1c(=O)c2nnc(C3(C4CC4)CC3)n2c2ncc(CO)cc21` [Example 11], the IC50 on human PDE4D was 5560 nM; at human PDE1C it was below 0.5 nM.

Turning to `CCC(Cn1c(=O)c2nnc(C3(C4CC4)CC3)n2c2ncccc21)OC` (single isomer, unassigned) [Example 4a, 9-([1,1′-bi(cyclopropan)]-1-yl)-5-(2-methoxybutyl)pyrido[3,2-e][1,2,4]triazolo[4,3-a]pyrazin-6(5H)-one], the IC50 at human PDE4D was above 100000 nM; in assay [1], above 100000 nM; on human PDE1C, 1.49 nM; on human PDE1A it was 26.8 nM; at human PDE1B it was 40.1 nM; at human PDE6A/6B, above 10000 nM.

For the molecule `CCCCn1c(=O)c2nnc(C3(C)CC3)n2c2ncc(CC)cc21` [Example 8, 5-butyl-3-ethyl-9-(1-methylcyclopropyl)pyrido[3,2-e][1,2,4]triazolo[4,3-a]pyrazin-6(5H)-one], the IC50 at human PDE4D was 957 nM; in assay [1] it was above 100000 nM; on human PDE1C, 2.14 ± 0.997 nM; on human PDE1A, 8.01 ± 3.55 nM; on human PDE1B it was 9.34 ± 4.33 nM; on human PDE6A/6B it was 3290 nM.

Regarding `CCCn1c(=O)c2nnc(C3(C4CC4)CC3)n2c2ncc(C)cc21` [Example 3, 9-([1,1′-Bi(cyclopropan)]-1-yl)-3-methyl-5-propylpyrido[3,2-e][1,2,4]triazolo[4,3-a]pyrazin-6(5H)-one], the concentration for half-maximal inhibition (IC50) was 2120 nM on human PDE4D; above 100000 nM in assay [1]; 2.77 ± 0.636 nM at human PDE1C; 2.59 ± 1.69 nM on human PDE1A; 3.41 ± 1.52 nM on human PDE1B; above 10000 nM on human PDE6A/6B.
